The target of this assay is T1, human PAH with the R408W mutation (Homo sapiens, UniProt P00439, R408W).
T1 construct: expressed in transfected cells
T1 sequence (P00439 1-452 R408W): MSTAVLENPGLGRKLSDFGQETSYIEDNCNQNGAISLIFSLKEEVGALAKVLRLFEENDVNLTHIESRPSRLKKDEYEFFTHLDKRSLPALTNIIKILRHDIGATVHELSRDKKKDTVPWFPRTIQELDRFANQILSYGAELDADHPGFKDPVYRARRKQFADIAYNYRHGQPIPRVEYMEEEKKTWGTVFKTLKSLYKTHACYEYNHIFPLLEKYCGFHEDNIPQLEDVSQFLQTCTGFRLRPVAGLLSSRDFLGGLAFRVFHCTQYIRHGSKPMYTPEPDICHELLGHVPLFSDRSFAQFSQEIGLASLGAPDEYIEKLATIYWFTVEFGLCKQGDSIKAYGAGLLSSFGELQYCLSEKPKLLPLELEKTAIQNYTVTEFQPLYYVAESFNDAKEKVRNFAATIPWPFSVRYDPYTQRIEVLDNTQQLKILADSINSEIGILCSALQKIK
Nature of the assay: Cell Based Phenylalanine Flux Assay.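 Also: after compound treatment, cells received sepiapterin plus isotope-labelled Phenylalanine for 4 hours, then labelled Tyrosine in the medium was quantified, 10-point 2-fold dilution series run in duplicate.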 To be noted: A375 cells expressing human R408W PAH; 24 hrs compound incubation; 13C-Tyrosine by LC-MS; average where tested multiple times; read-out: AC50.
For `O=C(c1nnc(-c2cc(C(F)(F)F)ccn2)o1)N1CCc2[nH]cnc2[C@@H]1c1cc2ccccn2n1` [Example 668, (R)-(4-(pyrazolo[1,5-a]pyridin-2-yl)-6,7-dihydro-1H-imidazo[4,5-c]pyridin-5(4H)-yl)(5-(4-(trifluoromethyl)pyridin-2-yl)-1,3,4-oxadiazol-2-yl)methanone], the concentration at half-maximal activity (AC50) – broadly, the concentration at which the activity in the assay is half-maximal – was > 5 µM.

On to `O=C(c1nnc(-c2cc(C(F)(F)F)ccn2)o1)N1CCc2[nH]cnc2[C@H]1c1cc2ccccn2n1` [Example 669, (S)-(4-(pyrazolo[1,5-a]pyridin-2-yl)-6,7-dihydro-1H-imidazo[4,5-c]pyridin-5(4H)-yl)(5-(4-(trifluoromethyl)pyridin-2-yl)-1,3,4-oxadiazol-2-yl)methanone], for which the half-maximal activity concentration (AC50) was < 0.5 µM.

Consider `CC(C)(O)c1nc(C(F)F)c(C(=O)N2CCc3[nH]cnc3[C@H]2c2cc3ccccn3n2)o1` [Example 670, (S)-(4-(difluoromethyl)-2-(2-hydroxypropan-2-yl)oxazol-5-yl)(4-(pyrazolo[1,5-a]pyridin-2-yl)-6,7-dihydro-1H-imidazo[4,5-c]pyridin-5(4H)-yl)methanone], for which the half-maximal activity concentration (AC50) was < 0.5 µM.

As to `CC(C)(O)c1nc(C(F)F)c(C(=O)N2CCc3[nH]cnc3[C@@H]2c2cc3ccccn3n2)o1` [Example 671, (R)-(4-(difluoromethyl)-2-(2-hydroxypropan-2-yl)oxazol-5-yl)(4-(pyrazolo[1,5-a]pyridin-2-yl)-6,7-dihydro-1H-imidazo[4,5-c]pyridin-5(4H)-yl)methanone], the concentration at half-maximal activity (AC50) was > 5 µM.

Regarding `Cc1ccc(-c2nnc(C(=O)N3CCc4[nH]cnc4[C@@H]3c3cc4ccccn4n3)o2)nc1` [Example 672, (R)-(5-(5-methylpyridin-2-yl)-1,3,4-oxadiazol-2-yl)(4-(pyrazolo[1,5-a]pyridin-2-yl)-6,7-dihydro-1H-imidazo[4,5-c]pyridin-5(4H)-yl)methanone], the AC50 is > 5 µM.

For `Cc1ccc(-c2nnc(C(=O)N3CCc4[nH]cnc4[C@H]3c3cc4ccccn4n3)o2)nc1` [Example 673, (S)-(5-(5-methylpyridin-2-yl)-1,3,4-oxadiazol-2-yl)(4-(pyrazolo[1,5-a]pyridin-2-yl)-6,7-dihydro-1H-imidazo[4,5-c]pyridin-5(4H)-yl)methanone], the AC50 was 0.5 to 1 µM.

Turning to `O=C(c1cn(-c2ccccn2)nc1Cl)N1CCc2[nH]cnc2[C@H]1c1cc2ccccn2n1` [Example 674, (S)-(3-chloro-1-(pyridin-2-yl)-1H-pyrazol-4-yl)(4-(pyrazolo[1,5-a]pyridin-2-yl)-6,7-dihydro-1H-imidazo[4,5-c]pyridin-5(4H)-yl)methanone], the AC50 lay in the range of 1 to 5 µM.

`O=C(c1cn(-c2ccccn2)nc1Cl)N1CCc2[nH]cnc2[C@@H]1c1cc2ccccn2n1` [Example 675, (R)-(3-chloro-1-(pyridin-2-yl)-1H-pyrazol-4-yl)(4-(pyrazolo[1,5-a]pyridin-2-yl)-6,7-dihydro-1H-imidazo[4,5-c]pyridin-5(4H)-yl)methanone]: the half-maximal activity concentration (AC50) is > 5 µM.

`CC(C)(O)c1nc(Br)c(C(=O)N2CCc3[nH]cnc3[C@H]2c2cc3ccccn3n2)o1` [Example 676, (S)-(4-bromo-2-(2-hydroxypropan-2-yl)oxazol-5-yl)(4-(pyrazolo[1,5-a]pyridin-2-yl)-6,7-dihydro-1H-imidazo[4,5-c]pyridin-5(4H)-yl)methanone]: the AC50 is < 0.5 µM.

On to `CC(C)(O)c1nc(Br)c(C(=O)N2CCc3[nH]cnc3[C@@H]2c2cc3ccccn3n2)o1` [Example 677, (R)-(4-bromo-2-(2-hydroxypropan-2-yl)oxazol-5-yl)(4-(pyrazolo[1,5-a]pyridin-2-yl)-6,7-dihydro-1H-imidazo[4,5-c]pyridin-5(4H)-yl)methanone], for which the AC50 was > 5 µM.

Consider `Cn1cc(-c2nnc(C(=O)N3CCc4[nH]cnc4[C@H]3c3cc4ccccn4n3)o2)c(C(F)(F)F)n1` [Example 678, (S)-(5-(1-methyl-3-(trifluoromethyl)-1H-pyrazol-4-yl)-1,3,4-oxadiazol-2-yl)(4-(pyrazolo[1,5-a]pyridin-2-yl)-6,7-dihydro-1H-imidazo[4,5-c]pyridin-5(4H)-yl)methanone], for which the half-maximal activity concentration (AC50) lay within 1 to 5 µM.
